Measurements as given in patent publication US9452985B2, “Tau imaging probe” (GE Healthcare Limited, priority 2010, dated 2016).
Where two headings read alike, the source gives them in different places.

What was measured:
[1] = Evaluation of brain delivery of [^18F] THK-5105, [^18F] THK-5117 and [^18F] THK-5125 in mice; type: in vivo, male ICR mice; settings: for delivery to and washout from the brain / % ID/g 2 minutes post-administration: mice; for delivery to and washout from the brain: compared with [^18F] BAY94-9172, [^18F] AV-45 and [^18F] FDDNP; for % ID/g 2 minutes post-administration: tail vein, brain; for 2 minutes post-administration/60 minutes post-administration: quotient of brain % ID/g values
Experimental: A physiological saline solution containing [^18F] THK-5105, [^18F] THK-5117, or [^18F] THK-5125 was administered into the tail vein of male ICR mice (6 to 7 weeks old), and brain delivery of these label compounds was assessed from the accumulation of radioactivity in brain and plasma tissues at two minutes post-injection.
As an index in the evaluation of radioactive accumulation, use was made of the percentage of radioactivity per unit weight of brain relative to the total radioactivity administered (% Injected Dose/g of tissue; % ID/g). For measurement of radioactivity, a gamma counter (1480 WIZARD, Perkin Elmer) was used. Experimental procedures were as follows. A label compound was administered into the tail vein of mice. Two minutes later, each mouse was subjected to cervical dislocation under ether anesthesia, and the whole brain, including the cerebellum and brain stem, was isolated immediately. The radioactivity and tissue weight of the sample were measured, and their data were used to calculate a % ID/g values for the labeled compound.

[2] = tested on: neurofibrillary tangles (tau protein); test: Autoradiography experiments using [^18F] THK-5105, [^18F] THK-5117 and [^18F] THK-5125; type: binding, human; settings: for affinity to neurofibrillary tangles (tau protein), autoradiography / accumulation in autoradiography of sections of the lateral temporal cortex and of the medial temporal cortex: Alzheimer's disease patient brain sections; for accumulation in autoradiography of sections of the lateral temporal cortex and of the medial temporal cortex: approximately 400 μCi/ml, 10 minutes
Experimental: Paraffin-embedded sections of the brain from an Alzheimer's disease patient were deparaffinized, and then immersed in PBS for 10 minutes. Approximately 400 μCi/ml of each of [^18F] THK-5105, [^18F] THK-5117, and [^18F] THK-5125 was added dropwise to deparaffinized sections and allowed to react for 10 minutes at room temperature. After that, the sections were immersed in distilled water for 2 minutes, shaken lightly in 50% EtOH for 2 minutes, immersed again in distilled water for 2 minutes, and dried in a paraffin stretching device. The section was left overnight in contact with an imaging plate. Next day, the image was read with a BAS 5000 (Fujifilm Corporation). In addition, adjacent sections were immunostained with anti-phosphorylated tau antibody (AT8).

[3] = Evaluation of brain delivery of [^18F] THK-5105, [^18F] THK-5117 and [^18F] THK-5125 in mice; type: in vivo, male ICR mice; settings: tail vein
K18-ΔK280 aggregates = K18-ΔK280 aggregates (Homo sapiens (Human), UniProt P10636, DEL597-597); test: Competitive binding test using [^18F] THK-5105 as radioactive competitor; settings: radioactive ligand [^18F] THK-5105 1.76 nM, K18-ΔK280 aggregates 200 nM, room temperature, one hour
Sequence of K18-ΔK280 aggregates (P10636 other isoform, or with tags, fused parts or gaps del 597-597): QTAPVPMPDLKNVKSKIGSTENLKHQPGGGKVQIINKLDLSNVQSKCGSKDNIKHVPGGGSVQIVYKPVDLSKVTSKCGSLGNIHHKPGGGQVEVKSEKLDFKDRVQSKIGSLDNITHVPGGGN
Experimental: Regarding the binding of tau imaging probes to tau protein aggregates, a binding test was carried out and evaluated using a K18-ΔK280 construct which contained a 4-repeat structure involved in the formation of beta-sheet structures in the htau40 protein. For K18-ΔK280 (Martin von Bergen et al., THE JOURNAL OF BIOLOGICAL CHEMISTRY (2001), vol. 276, pp. 48165-48174; M. Goedert et al., NEURON (1989), vol. 3, pp. 519-526), an artificial gene fragment which was prepared based on its amino acid sequence was cloned into a pET-3a vector, the resulting plasmid was used to transform Escherichia coli BL21 (DE3) competent cells for protein expression, and the recombinant Escherichia coli cell was cultured to express K18-ΔK280. The K18-ΔK280 expressed was purified according to the method described in the literature (Stefan Barghorn et al., Methods in Molecular Biology, vol. 299, pp. 35-51). In the binding test, aggregates of the purified K18-ΔK280 were made and used.
K18-ΔK280 aggregates were made by preparing 20 μM PBS (pH 7.4) and incubating the K18-ΔK280 in the PBS at 37° C. for 4 days. The state where beta-sheet structures in K18-ΔK280 aggregates were formed was ascertained by thioflavin S fluorescence binding test. The aggregates solution was diluted to 400 nM in assay buffer (PBS, 0.1% BSA) and used in the binding test.
For tau imaging probes other than THK-5105, binding to K18-ΔK280 aggregates was evaluated with a competitive binding test using [^18F] THK-5105 as a radioactive competitor. In the binding test, [^18F] THK-5105 (at a final concentration of 1.76 nM) and a tested compound (at final concentrations of from 0.1 to 1000 nM) coexisted in the reaction system, to which K18-ΔK280 aggregates (at a final concentration of 200 nM) was then added and the mixtures were incubated at room temperature for one hour. The radioactivity of [^18F] THK-5105 binding to the aggregates was determined in a similar way as in the saturation binding test of THK-5105. The percentage of [^18F] THK-5105 bonding in the absence of each tested compound was set to be 100%, and percentages of [^18F] THK-5105 bonding at various concentrations of each of the tested compounds were determined.

neurofibrillary tangles = test: Staining test on brain section of Alzheimer's disease patients; type: binding, human; settings: 100 μM solution in 50% ethanol, 10 minutes, fluorescence microscope
Excerpt: The procedure of staining test on the compounds of the present invention on the brain section of Alzheimer's disease patients is described below:
(1) We used the brain specimens of the temporal lobe or hippocampus from patients who were definitely diagnosed as having Alzheimer's disease pathology. The specimens were obtained from Choju Medical Institute, Fukushimura Hospital, our collaborating research institute, and the consent for use for research purposes was obtained from the patients' bereaved family (Fukushimura Hospital, Ethics Committee Approval No. 20).
(2) The paraffin-embedded brain tissue was sliced to 6 or 8 μm thickness, extended on a slide glass, and dried. The paraffinized brain section was deparaffinized by washing with xylene for 10 minutes×2, 100% ethanol for 5 minutes×2, 90% ethanol for 5 minutes, and running water for 10 minutes in this order.
(3) As a pretreatment for staining with the compounds of the present invention, the treatment to remove autofluorescence with lipofuscin was performed. First, the paraffinized brain section was immersed in 0.25% KMnO4 solution for 20 minutes. It was washed with PBS for 2 minutes twice, immersed in a 0.1% K2S2O5/oxalic acid solution for approximately 5 minutes, and further washed with PBS for 2 minutes 3 times.
(4) From 100 μM solution of the compounds of the present invention dissolved in 50% ethanol, approximately 150 μl was dropped on the section to react for 10 minutes. After being immersed in tap water 5 times, it was mounted with Flour Save Reagent (Calbiochem) and examined with a fluorescence microscope (Nikon, ECLIPSE 80i). The images were taken with a digital camera (Nikon, Dxin1200F or Photometrics, Cool SNAP ES).

[4] = data taken from Zhang et al. 2005 / Choi et al. 2009, cited from earlier work; for % ID/g 2 minutes post-administration / % ID/g 60 minutes post-administration: brain; for 2 minutes post-administration/60 minutes post-administration: quotient of brain % ID/g values
[5] = tested on: neurofibrillary tangles (tau protein); test: Autoradiography test with [^18F] BF-227 and [^18F] THK-5035 on brain section of Alzheimer's disease patients; type: binding, human; settings: approximately 400 μCi/ml, 10 minutes
Experimental: After the paraffin-embedded brain section of Alzheimer's disease patients was deparaffinized, it was immersed in PBS for 10 minutes. Approximately 400 μCi/ml of [^18F] BF-227 and [^18F] THK-5035 were dropped on the section to react for 10 minutes at room temperature. It was immersed in distilled water for 2 minutes, shaken in 50% EtOH lightly for 2 minutes, immersed again in distilled water for 2 minutes, and dried in a paraffin extension device. The section was contacted on an imaging plate and settled overnight, and the next day, the images were read with a BAS5000 (Fujifilm Corporation). Furthermore, the serial section was immunostained with thioflavine-S staining and anti-tau antibody (AT8).

CNc1ccc(-c2ccc3cc(OCC(O)C[18F])ccc3n2)cc1 (stereo not shown) [[^18F] THK-5117]
delivery to and washout from the brain [1]: superior in being delivered to and washed out from the brain
% ID/g 2 minutes post-administration [1]: 6.06 % ID/g
2 minutes post-administration/60 minutes post-administration [1]: 23.3
affinity to neurofibrillary tangles (tau protein), autoradiography [2]: high affinity to neurofibrillary tangles (tau protein)
accumulation in autoradiography of sections of the lateral temporal cortex and of the medial temporal cortex [2]: accumulated in the lateral temporal cortex and medial temporal cortex
% ID/g 60 minutes post-administration [3]: 0.26 % ID/g

CNc1ccc(-c2ccc3cc(OCC(O)CF)ccc3n2)cn1 (stereo not shown) [THK-5151, 2-(2-methylaminopyrid-5-yl)-6-[(3-fluoro-2-hydroxy)propoxy]quinoline]
Ki (K18-ΔK280 aggregates): 0.0401 µM

Nc1ccc(-c2ccc3cc(OCCF)ccc3n2)cc1 [THK-523, reference compound]
Ki (K18-ΔK280 aggregates): 0.0593 µM

CN(C)c1ccc(-c2ccc3cc(OCC(O)CF)ccc3n2)cn1 (stereo not shown) [THK-5129, 6-[(3-fluoro-2-hydroxy)propoxy]-2-(2-dimethylaminopyrid-5-yl)quinoline]
Ki (K18-ΔK280 aggregates): 0.0214 µM

CCN(CC)c1ccc(-c2ccc3cc(OCC(O)CF)ccc3n2)cc1 (stereo not shown) [THK-5122, 6-[(3-fluoro-2-hydroxy)propoxy]-2-(4-diethylaminophenyl)quinoline]
Ki (K18-ΔK280 aggregates): 0.0349 µM

Nc1ccc(-c2ccc3cc(OCC(O)CF)ccc3n2)cc1 (stereo not shown) [THK-5116, 2-(4-aminophenyl)-6-[(3-fluoro-2-hydroxy)propoxy]quinoline]
binding to neurofibrillary tangles in the brain section of Alzheimer's disease patients (staining test) (neurofibrillary tangles): bind to neurofibrillary tangles specifically and selectively
Ki (K18-ΔK280 aggregates): 0.036 µM

CNc1ccc(/C=C/c2ccc(OCCOCCOCC[18F])nc2)cc1 [[^18F]AV-45]
% ID/g 2 minutes post-administration [4]: 7.33 % ID/g
% ID/g 60 minutes post-administration [4]: 1.88 % ID/g
2 minutes post-administration/60 minutes post-administration [4]: 3.90

CC(=C(C#N)C#N)c1ccc2cc(N(C)CCF)ccc2c1 [FDDNP, reference compound]
Ki (K18-ΔK280 aggregates): 0.256 µM

CNc1ccc(/C=C/c2ccc(OCCOCCOCC[18F])cc2)cc1 [[^18F]BAY94-9172]
% ID/g 2 minutes post-administration [4]: 7.77 % ID/g
% ID/g 60 minutes post-administration [4]: 1.61 % ID/g
2 minutes post-administration/60 minutes post-administration [4]: 4.83

CCNc1ccc(-c2ccc3cc(OCC(O)CF)ccc3n2)cc1 (stereo not shown) [THK-5125, 2-(4-ethylaminophenyl)-6-[(3-fluoro-2-hydroxy)propoxy]quinoline]
Ki (K18-ΔK280 aggregates): 0.0092 µM

CN(C)c1ccc(-c2ccc3cc(OC[C@H](O)C[18F])ccc3n2)cc1 [[^18F] THK-5105]
delivery to and washout from the brain [1]: superior in being delivered to and washed out from the brain
% ID/g 2 minutes post-administration [1]: 9.20 % ID/g
2 minutes post-administration/60 minutes post-administration [1]: 9.20
affinity to neurofibrillary tangles (tau protein), autoradiography [2]: high affinity to neurofibrillary tangles (tau protein)
accumulation in autoradiography of sections of the lateral temporal cortex and of the medial temporal cortex [2]: accumulated in the lateral temporal cortex and medial temporal cortex
correspondence of autoradiography / unlabeled staining image with anti-phosphorylated tau antibody (AT8) immunostaining ([2]; hippocampus section and adjacent sections, higher magnification images): corresponded well with the image of immunostaining with the anti-phosphorylated tau antibody
% ID/g 60 minutes post-administration [3]: 1.00 % ID/g

CCN(CC)c1ccc(-c2ccc3cc(OC(CO)CF)ccc3n2)cc1 (stereo not shown) [THK-5035, 2-(4-diethylaminophenyl)-6-(1-fluoromethyl-2-hydroxy)quinoline]
binding to neurofibrillary tangles in the brain section of Alzheimer's disease patients (staining test) (neurofibrillary tangles): bind to neurofibrillary tangles specifically and selectively

CC(=C(C#N)C#N)c1ccc2cc(N(C)CCF)ccc2c1 [[^18F]FDDNP, reference compound]
% ID/g 2 minutes post-administration [1]: 6.23 % ID/g
2 minutes post-administration/60 minutes post-administration [1]: 2.91
% ID/g 60 minutes post-administration [3]: 2.14 % ID/g

CNc1ccc(-c2ccc3cc(OCC(O)CF)ccc3n2)cc1 (stereo not shown) [THK-5117, 6-[(3-fluoro-2-hydroxy)propoxy]-2-(4-methylaminophenyl)quinoline]
binding to neurofibrillary tangles in the brain section of Alzheimer's disease patients (staining test) (neurofibrillary tangles): bind to neurofibrillary tangles specifically and selectively
Ki (K18-ΔK280 aggregates): 0.0105 µM

CN(C)c1ncc(C=Cc2nc3ccc(OCCF)cc3o2)s1 [[^18F] BF-227]
accumulation in the region where [^18F] THK-5035 was accumulated (anti-tau antibody positive region), autoradiography [5]: no accumulation
